Numbering of substitutions follows the chain as printed. “Also recorded” adds a separate entry of the source. Read-outs that look alike come from different tables or passages of the source. No end group written: not given here.
How the values were obtained:
PAR4 = target: T1, PAR4 (Homo sapiens, UniProt Q96RI0, A120T); assay: phosphoinositide hydrolysis assay in COS cells transiently transfected with PAR4 cDNA; format: cell-based; settings: for activity against PAR4 (other proteases): concentration not given; for response of PAR4-transfected COS cells (phosphatidylinositol 4,5 diphosphate hydrolysis): protease at 100 nM
T1 construct: expressed in transfected cells; host or cells: COS-7
T1 sequence (Q96RI0 18-385 A120T): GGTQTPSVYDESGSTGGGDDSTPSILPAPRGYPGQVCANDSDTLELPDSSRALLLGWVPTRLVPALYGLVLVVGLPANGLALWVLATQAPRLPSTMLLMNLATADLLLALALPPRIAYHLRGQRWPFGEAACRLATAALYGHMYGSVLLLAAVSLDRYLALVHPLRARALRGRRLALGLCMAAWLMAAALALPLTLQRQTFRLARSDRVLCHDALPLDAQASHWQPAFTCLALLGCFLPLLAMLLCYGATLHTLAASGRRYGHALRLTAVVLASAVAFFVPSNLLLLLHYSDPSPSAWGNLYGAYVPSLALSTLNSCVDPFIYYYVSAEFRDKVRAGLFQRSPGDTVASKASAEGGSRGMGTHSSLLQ
Experimental: (§1) COS cells were transiently transfected with PAR4 cDNA, and examined for responses to thrombin and trypsin. Briefly, for the phosphoinositide hydrolysis assay, COS-7 cells were grown in Dulbecco's modified Eagle's medium (DMEM; Gibco/BRL, Gaithersburg, Md.) with 10% fetal bovine serum (FBS). Cells were plated at 3.5×10^5/35-mm plate one day before transfection. Two μg of DNA were transfected using 12 μl of lipofectAMINE (Gibco/BRL) for 5 h. The cells were incubated overnight in DMEM with 10% FBS, and then split into triplicate 35-mm wells. Forty-eight hours after transfection, the cells were loaded with 2 μCi/ml [^3H]myo-inositol (Amersham, Arlington Heights, Ill.) in serum-free DMEM and incubated overnight at 37° C. Cells were washed and treated with 20 mM LiCl in DMEM, with or without protease or peptide activators added at various concentrations. Cells were then incubated for 2 h at 37° C. and extracted with 750 μl of 20 mM formic acid for 30 min on ice. The inositol mono-, bis-, and trisphosphates were purified through a one ml AG 1-X8 anion-exchange resin (Bio-Rad, Hercules, Calif.) (T. Nanevicz et al., J. Biol. Chem. 271:702–06, 1996), and quantitated by scintillation counting. In each hydrolysis assay, surface expression levels of receptors were determined in triplicate in parallel cultures.

PAR4 (R47A) = target: T2, PAR4 (R47A) (Homo sapiens, UniProt Q96RI0, A120T/R47A); assay: phosphoinositide hydrolysis in COS cells expressing cleavage site mutant PAR4 (R47A); format: cell-based; settings: Ala for Arg at residue 47
T2 construct: expressed in transfected cells; host or cells: COS cells
T2 sequence (Q96RI0 18-385 R47A/A120T): T1 sequence (Q96RI0 18-385 A120T) with R30A
Experimental: as §1, with “cultures. […]” for “cultures.”

PAR1 = target: T3, PAR1 (Homo sapiens, UniProt P25116); assay: thrombin-stimulated phosphoinositide hydrolysis, PAR1 (comparison); format: cell-based; settings: comparison with PAR4; read-out: half-maximal concentration (EC50) for PAR1
T3 construct: expressed in transfected cells; COS-7 inferred from the assay of b141
T3 sequence (P25116 22-425): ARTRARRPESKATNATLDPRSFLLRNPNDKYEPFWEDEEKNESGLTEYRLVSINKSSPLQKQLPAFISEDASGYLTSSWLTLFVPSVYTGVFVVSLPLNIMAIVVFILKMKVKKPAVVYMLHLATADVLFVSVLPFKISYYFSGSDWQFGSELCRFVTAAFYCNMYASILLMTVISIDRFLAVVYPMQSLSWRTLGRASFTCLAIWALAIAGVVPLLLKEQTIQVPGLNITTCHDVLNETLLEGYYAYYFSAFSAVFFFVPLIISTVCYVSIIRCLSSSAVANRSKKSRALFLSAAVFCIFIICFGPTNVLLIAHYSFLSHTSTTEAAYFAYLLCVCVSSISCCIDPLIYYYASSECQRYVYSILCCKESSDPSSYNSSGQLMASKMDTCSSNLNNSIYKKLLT
Experimental: For comparative purposes, PAR1 protein was prepared. Briefly, the cDNA coding for PAR1 was isolated from a placental cDNA library by PCR. The PAR1 DNA sequence obtained was essentially identical to that previously reported, except for nucleotides 711–712 (CG→GC) and nucleotides 1091–1092 (CG→GC). […] These amino acid changes were confirmed by sequence analysis of the corresponding regions in the genomic DNA coding for PAR1.
as §1, with “Forty-eight hours after transfection, the cells were loaded with 2 μCi/ml [^3H]myo-inositol (Amersham, Arlington Heights, Ill.) in serum-free DMEM and incubated overnight at 37° C. Cells were washed and treated with 20 mM LiCl in DMEM, with or without protease or peptide activators added at various concentrations. Cells were then incubated for 2 h at 37° C. and extracted with 750 μl of 20 mM formic acid for 30 min on ice.” left out

PAR4 (R68A) = target: T4, PAR4 (R68A) (Homo sapiens, UniProt Q96RI0, A120T/R68A); assay: phosphatidylinositol 4,5 diphosphate hydrolysis assay in COS cells expressing PAR4 mutant R68A; format: cell-based; settings: Arg 68 to Ala, extracellular amino-terminal region
T4 construct: expressed in transfected cells; host or cells: COS cells (inferred from the R47A sentence of the same paragraph)
T4 sequence (Q96RI0 18-385 R68A/A120T): T1 sequence (Q96RI0 18-385 A120T) with R51A
Experimental: as §1, with “cultures. […]” for “cultures.”

PAR3 = target: T5, PAR3 (Homo sapiens, UniProt O00254); settings: comparison with PAR4; read-out: half-maximal concentration (EC50) for PAR3; cited from earlier work
T5 sequence (O00254 22-374): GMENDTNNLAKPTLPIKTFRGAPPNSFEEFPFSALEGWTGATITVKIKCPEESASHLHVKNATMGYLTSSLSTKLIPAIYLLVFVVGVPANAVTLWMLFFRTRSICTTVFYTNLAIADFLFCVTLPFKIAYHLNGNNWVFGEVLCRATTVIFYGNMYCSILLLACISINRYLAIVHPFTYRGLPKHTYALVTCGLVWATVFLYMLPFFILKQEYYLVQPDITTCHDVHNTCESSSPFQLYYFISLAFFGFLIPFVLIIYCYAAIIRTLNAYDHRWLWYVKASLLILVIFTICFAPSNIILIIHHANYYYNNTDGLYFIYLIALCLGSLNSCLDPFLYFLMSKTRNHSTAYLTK

[1] = PAR4-transfected COS cells, read-out: half-maximal concentration (EC50), phosphoinositide hydrolysis with PAR4

In the case of Chymotrypsin, the “activity against PAR4 (other proteases)” value (PAR4) is reported as “failed to activate”.

GYPGQV [GYPGQV] gave an EC50 (PAR4) of about 100000 nM.

For SFLLRN [reference compound], the “activity toward PAR4 of PAR1 activating peptide” value (PAR4; concentration effective for PAR1 activation) was “no activity”.

In the case of elastase, the “activity against PAR4 (other proteases)” value (PAR4) is reported as “failed to activate”.

In the case of thrombin, the “response of putative cleavage site mutant PAR4 (R47A) to protease” value (PAR4 (R47A)) is reported as “failed to respond; also recorded: only activate the wild-type PAR4”, the EC50 (PAR1) is reported as about 0.2 nM and the “effect of R68A mutation on PAR4 activation by protease” value (PAR4 (R68A)) is reported as “no effect”. The EC50 (PAR3) was about 0.2 nM, the EC50 (PAR4; [1]) was 5 nM and the “response of PAR4-transfected COS cells (phosphatidylinositol 4,5 diphosphate hydrolysis)” value (PAR4) was “did respond”.

In the case of “trypsin: serine protease, activator of PAR4”, the “response of putative cleavage site mutant PAR4 (R47A) to protease” value (PAR4 (R47A)) is reported as “failed to respond; also recorded: only activate the wild-type PAR4”, the “effect of R68A mutation on PAR4 activation by protease” value (PAR4 (R68A)) is reported as “no effect” and the EC50 (PAR4; [1]) is reported as 5 nM. For the same molecule, the “response of PAR4-transfected COS cells (phosphatidylinositol 4,5 diphosphate hydrolysis)” value (PAR4) was “did respond”.

For urokinase, the “activity against PAR4 (other proteases)” value (PAR4) was “little or no activity”.

B1: plasmin: arginine/lysine-specific serine protease (protein, UniProt P00747 20-580; P00747 581-810, looked up)
Plasmin heavy chain A: EPLDDYVNTQGASLFSVTKKQLGAGSIEECAAKCEEDEEFTCRAFQYHSKEQQCVIMAENRKSSIIIRMRDVVLFEKKVYLSECKTGNGKNYRGTMSKTKNGITCQKWSSTSPHRPRFSPATHPSEGLEENYCRNPDNDPQGPWCYTTDPEKRYDYCDILECEEECMHCSGENYDGKISKTMSGLECQAWDSQSPHAHGYIPSKFPNKNLKKNYCRNPDRELRPWCFTTDPNKRWELCDIPRCTTPPPSSGPTYQCLKGTGENYRGNVAVTVSGHTCQHWSAQTPHTHNRTPENFPCKNLDENYCRNPDGKRAPWCHTTNSQVRWEYCKIPSCDSSPVSTEQLAPTAPPELTPVVQDCYHGDGQSYRGTSSTTTTGKKCQSWSSMTPHRHQKTPENYPNAGLTMNYCRNPDADKGPWCFTTDPSVRWEYCNLKKCSGTEASVVAPPPVVLLPDVETPSEEDCMFGNGKGYRGKRATTVTGTPCQDWAAQEPHRHSIFTPETNPRAGLEKNYCRNPDGDVGGPWCYTTNPRKLYDYCDVPQCAAPSFDCGKPQVEPKKCPGR
Plasmin light chain B: VVGGCVAHPHSWPWQVSLRTRFGMHFCGGTLISPEWVLTAAHCLEKSPRPSSYKVILGAHQEVNLEPHVQEIEVSRLFLEPTRKDIALLKLSSPAVITDKVIPACLPSPNYVVADRTECFITGWGETQGTFGAGLLKEAQLPVIENKVCNRYEFLNGRVQSTELCAGHLAGGTDSCQGDSGGPLVCFEKDKYILQGVTSWGLGCARPNKPGVYVRVSRFVTWIEGVMRNN
modifications: Plasmin
notes: arginine/lysine-specific serine protease
With B1 the “activity against PAR4 (other proteases)” value (PAR4) was “little or no activity”.
